Values quoted from earlier work as cited in patent EP0879035B1, “BISMUTH-CONTAINING COMPOSITIONS IN TOPICAL DOSAGE FORMS” (Josman Laboratories, Inc., priority 1995, dated 1997).
Where two headings read alike, the source gives them in different places.

Experiments:
[1] = in vivo
[2] = rats treated for three months; 160, 320, and 640 mg/kg body weight
[3] = test system: H. Pylori; conditions: against H. Pylori
[4] = dogs treated for six months; 160, 320, and 640 mg/kg body weight

With “1,2,3-PROPANETRICARBONIC ACID, 2-HYDROXY, BISMUTH(3T)POTASSIUM [CBS]” as the substance, how does the “steady-state blood levels unlikely to cause any neurotoxicity” value [1] read?
The value was 50-100.

What about the “systemic bioavailability of bismuth” value ([1]; po) of the same substance?
Its value is 0.16-0.28 % of the administered dose.

And the “toxicity on chronic daily administration” value [2]?
Its value is “No toxicity”.

And the “minimum inhibitory concentration (MIC), range” value [3]?
The value was 4 to 32 µg/mL.

And the “toxicity on chronic daily administration” value [4]?
Its value is “No toxicity”.
